The values below are quoted from earlier work in patent US20050129764A1, “Osmotic device containing licofelone” (priority 2003, published 2005).

The conditions of data set [1]: 200 mg dose administered twice daily.
The conditions of data set [2]: single dose (800-3,200) mg, volunteers.
For data set [3], the system named is osteoarthritis of the knee. The note with it: phase III.

With `CC1(C)Cc2c(-c3ccccc3)c(-c3ccc(Cl)cc3)c(CC(=O)O)n2C1` [licofelone], the “activity in animal experiments” value was “antiphlogistic, analgesic, antipyretic, antiasthmatic and antiaggregative activity”. Also, in data set [1], the “elimination half-life (T1/2β)” value is 8.7 to 11.1 h, the “peak plasma licofelone concentrations” value was 1650 to 1750 ng/mL and the “time post-dose at which peak plasma concentrations were reached” value was 0.74 to 4 h. For the same molecule, the tolerability result in data set [2] is given as “generally well tolerated”. Also, the “improvement in efficacy parameters” value in data set [3] (licofelone 400 mg/day bid) is listed as “greatest improvement in efficacy parameters”. Also, the “efficacy in long-term treatment of osteoarthritis of the knee vs naproxen” value in data set [3] (n=704, licofelone 200 and 400 mg/day bid, naproxen 1000 mg/day bid) is “at least as effective as naproxen”. Also, the “gastrointestinal damage at active dosage” value (animal experiments) was “no gastrointestinal damage”.
